In brackets after ≈: the same amount, converted by molar mass. Activity calls are given as the source filed them. The calls are words filed in the database; no cut-off is given here. Bridge positions count the residues as written; N and C are the ends. Peptide text beside a SMILES is read from it. I, II: the chains in the order shown. * marks the point of attachment. Palmitoyl = CCCCCCCCCCCCCCCC(=O)*; Myristoyl = CCCCCCCCCCCCCC(=O)*; Lauroyl = CCCCCCCCCCCC(=O)*; Decanoyl = CCCCCCCCCC(=O)*
How the values were obtained:
Pseudomonas aeruginosa [1] = experiment: Antibacterial activity against Pseudomonas aeruginosa DU14476 after 24 hrs by broth microdilution method; assay type: functional; settings: DU14476, 24 h
Pseudomonas aeruginosa [2] = experiment: Antibacterial activity against Pseudomonas aeruginosa DR5790 after 24 hrs by broth microdilution method; assay type: functional; settings: DR5790, 24 h
Pseudomonas aeruginosa [3] = experiment: Antibacterial activity against Pseudomonas aeruginosa DM4150R after 24 hrs by broth microdilution method; assay type: functional
Pseudomonas aeruginosa [4] = experiment: Antibacterial activity against Pseudomonas aeruginosa DR4877 after 24 hrs by broth microdilution method; assay type: functional; settings: DR4877, 24 h
[5] = Induction of calcein leakage from DOPC artificial membrane at 1:32 ratio of compound to lipid by fluorescence assay; assay type: physicochemical
Lipopolysaccharide (LPS) [6] = experiment: Displacement of dansylcadaverine from Escherichia coli 0111:B4 LPS at 15 to 30 uM after 5 mins by high-throughput fluorescence displacement assay
Pseudomonas aeruginosa [7] = experiment: Antibacterial activity against Pseudomonas aeruginosa DM23155 after 24 hrs by broth microdilution method; assay type: functional; settings: DM23155, 24 h
Pseudomonas aeruginosa [8] = experiment: Antibacterial activity against Pseudomonas aeruginosa DM23257 after 24 hrs by broth microdilution method; assay type: functional; settings: DM23257, 24 h
Pseudomonas aeruginosa [9] = experiment: Antibacterial activity against Pseudomonas aeruginosa DM23376 after 24 hrs by broth microdilution method; assay type: functional; settings: DM23376, 24 h
Klebsiella pneumoniae = experiment: Antibacterial activity against Klebsiella pneumoniae DM4299 after 24 hrs by broth microdilution method; assay type: functional; settings: DM4299, 24 h
Pseudomonas aeruginosa [10] = experiment: Antibacterial activity against Pseudomonas aeruginosa ATCC 27853 after 24 hrs by broth microdilution method; assay type: functional; settings: ATCC 27853, 24 h
Pseudomonas aeruginosa [11] = experiment: Induction of 1-N-phenylnaphthylamine uptake in Pseudomonas aeruginosa DM23155 at 400 uM after 1 hr by fluorescence assay relative to polymyxin B; assay type: functional
Pseudomonas aeruginosa [12] = experiment: Antibacterial activity against Pseudomonas aeruginosa ATCC 9027 after 24 hrs by broth microdilution method; assay type: functional; settings: ATCC 9027, 24 h
Escherichia coli = experiment: Antibacterial activity against Escherichia coli ATCC 25922 after 24 hrs by broth microdilution method; assay type: functional; settings: ATCC 25922, 24 h
Lipopolysaccharide (LPS) [13] = experiment: Induction of Escherichia coli 0111:B4 LPS neutralization using p-nitroaniline assessed as concentration required to neutralize 50% after 1 hr by limulus amebocyte lysate assay
[14] = Toxicity in New Zealand white rabbit erythrocytes assessed as hemolytic activity after 60 mins; assay type: cell-based, Oryctolagus cuniculus; settings: erythrocyte, 1 h
Pseudomonas aeruginosa [15] = experiment: Antibacterial activity against Pseudomonas aeruginosa DR18531 after 24 hrs by broth microdilution method; assay type: functional; settings: DR18531, 24 h
[16] = Self-aggregation activity of the compound using 8-(Phenylamino)-1-naphthalenesulfonic acid as fluorescent probe at 300 uM by fluorescence assay; assay type: physicochemical
[17] = Induction of calcein leakage from DOPE/DOPG artificial membrane at 1:32 ratio of compound to lipid by fluorescence assay; assay type: physicochemical
Pseudomonas aeruginosa [18] = experiment: Induction of cytoplasmic membrane disruption in Pseudomonas aeruginosa DM23155 assessed as membrane integrity at 1 to 2 times MIC after 1 hr by fluorescence assay; assay type: functional
Pseudomonas aeruginosa [19] = experiment: Induction of cytoplasmic membrane depolarization in Pseudomonas aeruginosa DM23155 at 4 times MIC after 1 hr by fluorescence assay; assay type: functional, organism-based
[20] = Self-aggregation activity of the compound using 8-(Phenylamino)-1-naphthalenesulfonic acid as fluorescent probe at 20 uM by fluorescence assay; assay type: physicochemical
[21] = Self-aggregation activity of the compound using 8-(Phenylamino)-1-naphthalenesulfonic acid as fluorescent probe at 100 uM by fluorescence assay; assay type: physicochemical
[22] = Self-aggregation activity of the compound using 8-(Phenylamino)-1-naphthalenesulfonic acid as fluorescent probe at 300 uM by fluorescence assay in presence of 150 mM of NaCl; assay type: physicochemical

Compound | Activity [5] | Activity (Lipopolysaccharide (LPS) [6]) [%] | MIC (Pseudomonas aeruginosa [7]) [µM] | MIC (Klebsiella pneumoniae) [µM] | MIC (Escherichia coli) [µM] | EC50 (Lipopolysaccharide (LPS) [13]) [µM] | Activity [16] [%] | Activity [20] [%] | Activity [21] [%] | Activity [22] | Activity (Pseudomonas aeruginosa [11]) [%] | HC10 [14] [µg/mL] | further results
CCCCCCCCCCCC(=O)N[C@@H](CCCNC(=N)N)C(=O)NCC(=O)N[C@@H](CCCNC(=N)N)C(=O)N[C@@H](CCCCN)C(=O)NCC(=O)NCC(=O)N[C@@H](CCCNC(=N)N)C(=O)N[C@@H](CCCNC(=N)N)C(=O)NCCCC[C@H](NC(=O)[C@H](CCCNC(=N)N)NC(=O)[C@H](CCCNC(=N)N)NC(=O)CNC(=O)CNC(=O)[C@H](CCCCN)NC(=O)[C@H](CCCNC(=N)N)NC(=O)CNC(=O)[C@H](CCCNC(=N)N)NC(=O)CCCCCCCCCCC)C(=O)N[C@@H](CCCCN)C(=O)O (I: Lauroyl-RGRKGGRRKK-OH / II: Lauroyl-RGRKGGRR; amide I:9-II:C) | Active | 126 | 6 (≈ 14.9 µg/mL) | 6 (≈ 14.9 µg/mL) | 6 (≈ 14.9 µg/mL) | 62.8 | 62.5 | – | – | – | 55.9 | 517 | –
CCCCCCCCCCCC(=O)N[C@@H](CCCNC(=N)N)C(=O)NCC(=O)N[C@@H](CCCNC(=N)N)C(=O)N[C@@H](CCCCN)C(=O)N[C@H](C(=O)N[C@H](C(=O)N[C@@H](CCCNC(=N)N)C(=O)N[C@@H](CCCNC(=N)N)C(=O)NCCCC[C@H](NC(=O)[C@H](CCCNC(=N)N)NC(=O)[C@H](CCCNC(=N)N)NC(=O)[C@@H](NC(=O)[C@@H](NC(=O)[C@H](CCCCN)NC(=O)[C@H](CCCNC(=N)N)NC(=O)CNC(=O)[C@H](CCCNC(=N)N)NC(=O)CCCCCCCCCCC)C(C)C)C(C)C)C(=O)N[C@@H](CCCCN)C(=O)O)C(C)C)C(C)C (I: Lauroyl-RGRKVVRRKK-OH / II: Lauroyl-RGRKVVRR; amide I:9-II:C) | Active | 130 | 6 (≈ 15.9 µg/mL) | 6 (≈ 15.9 µg/mL) | 6 (≈ 15.9 µg/mL) | 29 | 27.6 | – | – | – | – | 543 | Activity [17]: Active; Activity (Pseudomonas aeruginosa [18]): <50%; Activity (Pseudomonas aeruginosa [19]): Active
CCCCCCCCCCCCCC(=O)N[C@@H](CCCNC(=N)N)C(=O)NCC(=O)N[C@@H](CCCNC(=N)N)C(=O)N[C@@H](CCCCN)C(=O)NCC(=O)NCC(=O)N[C@@H](CCCNC(=N)N)C(=O)N[C@@H](CCCNC(=N)N)C(=O)NCCCC[C@H](NC(=O)[C@H](CCCNC(=N)N)NC(=O)[C@H](CCCNC(=N)N)NC(=O)CNC(=O)CNC(=O)[C@H](CCCCN)NC(=O)[C@H](CCCNC(=N)N)NC(=O)CNC(=O)[C@H](CCCNC(=N)N)NC(=O)CCCCCCCCCCCCC)C(=O)N[C@@H](CCCCN)C(=O)O (I: Myristoyl-RGRKGGRRKK-OH / II: Myristoyl-RGRKGGRR; amide I:9-II:C) | Active | 124 | 6 (≈ 15.3 µg/mL) | 10 (≈ 25.4 µg/mL) | 10 (≈ 25.4 µg/mL) | 35.3 | – | 50 | 50 | Active | 39.2 | 82 | –

Continued by falling MIC (Pseudomonas aeruginosa [7]), values first:

Activity [5] | Activity (Lipopolysaccharide (LPS) [6]) [%] | MIC (Pseudomonas aeruginosa [7]) [µM] | MIC (Klebsiella pneumoniae) [µM] | MIC (Escherichia coli) [µM] | EC50 (Lipopolysaccharide (LPS) [13]) [µM] | Activity [16] [%] | Activity [20] [%] | Activity [21] [%] | Activity [22] | Compound | Activity (Pseudomonas aeruginosa [11]) [%] | HC10 [14] [µg/mL] | further results
Active | 106 | 10 (≈ 26 µg/mL) | 10 (≈ 26 µg/mL) | 10 (≈ 26 µg/mL) | 43 | – | 50 | 50 | Active | CCCCCCCCCCCCCCCC(=O)N[C@@H](CCCNC(=N)N)C(=O)NCC(=O)N[C@@H](CCCNC(=N)N)C(=O)N[C@@H](CCCCN)C(=O)NCC(=O)NCC(=O)N[C@@H](CCCNC(=N)N)C(=O)N[C@@H](CCCNC(=N)N)C(=O)NCCCC[C@H](NC(=O)[C@H](CCCNC(=N)N)NC(=O)[C@H](CCCNC(=N)N)NC(=O)CNC(=O)CNC(=O)[C@H](CCCCN)NC(=O)[C@H](CCCNC(=N)N)NC(=O)CNC(=O)[C@H](CCCNC(=N)N)NC(=O)CCCCCCCCCCCCCCC)C(=O)N[C@@H](CCCCN)C(=O)O (I: Palmitoyl-RGRKGGRRKK-OH / II: Palmitoyl-RGRKGGRR; amide I:9-II:C) | 36.5 | 64 | –
Active | 122 | 3 (≈ 7.29 µg/mL) | 3 (≈ 7.29 µg/mL) | 6 (≈ 14.6 µg/mL) | 142 | – | – | – | – | CCCCCCCCCC(=O)N[C@@H](CCCNC(=N)N)C(=O)NCC(=O)N[C@@H](CCCNC(=N)N)C(=O)N[C@@H](CCCCN)C(=O)NCC(=O)NCC(=O)N[C@@H](CCCNC(=N)N)C(=O)N[C@@H](CCCNC(=N)N)C(=O)NCCCC[C@H](NC(=O)[C@H](CCCNC(=N)N)NC(=O)[C@H](CCCNC(=N)N)NC(=O)CNC(=O)CNC(=O)[C@H](CCCCN)NC(=O)[C@H](CCCNC(=N)N)NC(=O)CNC(=O)[C@H](CCCNC(=N)N)NC(=O)CCCCCCCCC)C(=O)N[C@@H](CCCCN)C(=O)O (I: Decanoyl-RGRKGGRRKK-OH / II: Decanoyl-RGRKGGRR; amide I:9-II:C) | 44.3 | > 10000 | MIC (Pseudomonas aeruginosa [1]): 3 µM (≈ 7.29 µg/mL); MIC (Pseudomonas aeruginosa [2]): 3 µM (≈ 7.29 µg/mL); MIC (Pseudomonas aeruginosa [3]): 6 µM (≈ 14.6 µg/mL); MIC (Pseudomonas aeruginosa [4]): 6 µM (≈ 14.6 µg/mL); MIC (Pseudomonas aeruginosa [8]): 6 µM (≈ 14.6 µg/mL); MIC (Pseudomonas aeruginosa [9]): 6 µM (≈ 14.6 µg/mL); MIC (Pseudomonas aeruginosa [10]): 3 µM (≈ 7.29 µg/mL); MIC (Pseudomonas aeruginosa [12]): 6 µM (≈ 14.6 µg/mL); MIC (Pseudomonas aeruginosa [15]): 6 µM (≈ 14.6 µg/mL)

— ChEMBL document CHEMBL3603789, “N-Lipidated Peptide Dimers: Effective Antibacterial Agents against Gram-Negative Pathogens through Lipopolysaccharide Permeabilization” (J Med Chem, 2015)
